# ChEMBL document CHEMBL1128955, “Benzolactam growth hormone secretagogues: Replacement of the C-3 amide bond in L-692,429” (1996)
# Calls of active or inactive are those of the source. No cut-off for these calls is given here.
# Columns and labels:
# Rattus norvegicus [1] = organism: Rattus norvegicus; assay: In vitro growth hormone release in rat pituitary cells; assay type: functional; conditions: Pituitary gland cell, read-out: ED50 (the source's name)
# Rattus norvegicus [2] = organism: Rattus norvegicus; assay: In vitro growth hormone release in rat pituitary cells at 1 uM; Weakly active; assay type: functional, cell-based; conditions: Pituitary gland cell
# Rattus norvegicus [3] = organism: Rattus norvegicus; assay: In vitro growth hormone release in rat pituitary cells at 10 uM; inactive; assay type: functional, cell-based; conditions: Pituitary gland cell
SMILES,EC50 (Rattus norvegicus [1]),other results
CC(C)(N)C(=O)N[C@@H]1CCc2ccccc2N(Cc2ccc(-c3ccccc3-c3nn[nH]n3)cc2)C1=O,30 nM,–
CC(C)(N)CCSC1CCc2ccccc2N(Cc2ccc(-c3ccccc3-c3nn[nH]n3)cc2)C1=O (configuration not stated),6000 nM,–
CC(C)(N)CNC(=O)N[C@@H]1CCc2ccccc2N(Cc2ccc(-c3ccccc3-c3nn[nH]n3)cc2)C1=O,100 nM,–
CC(C)(N)CCC(=O)N[C@@H]1CCc2ccccc2N(Cc2ccc(-c3ccccc3-c3nn[nH]n3)cc2)C1=O,3000 nM,–
C[C@@H](O)CNC(C)(C)CNC(=O)N[C@@H]1CCc2ccccc2N(Cc2ccc(-c3ccccc3-c3nn[nH]n3)cc2)C1=O,–,Growth hormone release at 1 uM (qualitative) (Rattus norvegicus [2]): Weak activity
CN(C(=O)CC(C)(C)N)[C@@H]1CCc2ccccc2N(Cc2ccc(-c3ccccc3-c3nn[nH]n3)cc2)C1=O,7000 nM,–
CC(C)(N)CCNC1CCc2ccccc2N(Cc2ccc(-c3ccccc3-c3nn[nH]n3)cc2)C1=O (configuration not stated),–,Growth hormone release at 1 uM (qualitative) (Rattus norvegicus [2]): Weak activity
C[C@H](O)CNC(C)(C)CC(=O)N[C@@H]1CCc2ccccc2N(Cc2ccc(-c3ccccc3-c3nn[nH]n3)cc2)C1=O,7 nM,–
CC(C)(N)NC(=O)N[C@@H]1CCc2ccccc2N(Cc2ccc(-c3ccccc3-c3nn[nH]n3)cc2)C1=O,–,Growth hormone release at 1 uM (qualitative) (Rattus norvegicus [2]): Weak activity
CC(C)(N)CNC1CCc2ccccc2N(Cc2ccc(-c3ccccc3-c3nn[nH]n3)cc2)C1=O (configuration not stated),1000 nM,–
CC(C)(N)CCCSC1CCc2ccccc2N(Cc2ccc(-c3ccccc3-c3nn[nH]n3)cc2)C1=O (configuration not stated),7000 nM,–
CC(C)(N)CC(=O)N(Cc1ccccc1)[C@@H]1CCc2ccccc2N(Cc2ccc(-c3ccccc3-c3nn[nH]n3)cc2)C1=O,–,ED50 (Rattus norvegicus [3]): inactive
CC(C)(N)CC(=O)N[C@@H]1CCc2ccccc2N(Cc2ccc(-c3ccccc3-c3nn[nH]n3)cc2)C1=O,60 nM,–
CC(C)(N)CC(=O)OC1CCc2ccccc2N(Cc2ccc(-c3ccccc3-c3nn[nH]n3)cc2)C1=O (configuration not stated),–,Growth hormone release at 1 uM (qualitative) (Rattus norvegicus [2]): Weak activity
CC(C)(N)CC(=O)NC1CCc2ccccc2N(Cc2ccc(-c3ccccc3-c3nn[nH]n3)cc2)C1=O [L-158432],120 nM,–
C[C@H](O)CNC(C)(C)CNC(=O)N[C@@H]1CCc2ccccc2N(Cc2ccc(-c3ccccc3-c3nn[nH]n3)cc2)C1=O,2500 nM,–
C[C@@H](O)CNC(C)(C)CC(=O)N[C@@H]1CCc2ccccc2N(Cc2ccc(-c3ccccc3-c3nn[nH]n3)cc2)C1=O [L-692585],3 nM,–
